Entries after “also recorded” stand apart in the source; their conditions may differ. Where two headings read alike, the source gives them in different places.
Assays:
[1] = Observational cohort study of hospitalization outcomes in hemodialysis patients; assay type: in vivo, human; settings: for median number of days spent in the hospital (hospital days per year) / median number of hospitalizations in a year: hemodialysis patients, FIG. 2; for fewer hospital days compared to the No Vitamin D group / fewer hospitalizations compared to the No Vitamin D group: regression analysis, FIG. 3
From the text: This study was expanded to include patients who received no Vitamin D receptor activator treatment. [“Improved hospitalization outcomes in hemodialysis patients treated with paricalcitol.” J. Melnick, et al., abstract book from World Congress of Nephrology, Jun. 8-12, 2003, Berlin.

[2] = system: renin mRNA expression in As4.1-hVDR cells; test: Northern blot of renin mRNA expression in As4.1-hVDR cells; assay type: cell-based
From the text: (§1) Using an in vitro cell culture system, the activity of paricalcitol to suppress renin gene expression was examined using previously published techniques (1,25-Dihydroxyvitamin D3 is a negative endocrine regulator of the renin-angiotensin system, J. Clin. Invest., July 2002). […] This inhibitory effect is confirmed by renin promoter-luciferase reporter assays, which examine the activity of paricalcitol to suppress renin gene transcription.
(§2) In the present study, an investigation was made of the in vitro and in vivo activity of paricalcitol, a FDA-approved low calcemic vitamin D analog, to inhibit renin biosynthesis. To this end, As4.1-hVDR cells, a JG cell-like cell line stably transfected with human VDR, was treated with paricalcitol or 1,25(OH)2D3 at doses ranging from 10^−10 to 10^−7 M for 24 hours, and its renin-inhibiting activity was assessed by Northern blot analyses; the cells were also transfected with renin gene promoter-luciferase reporter plasmid, and luciferase activity was determined in the presence and absence of paricalcitol or 1,25(OH)2D3.

renin gene promoter = test: Renin promoter-luciferase reporter assay; assay type: cell-based
From the text: as §1, §2

PAI-1 [3] = test: PAI-1 Western blot in primary culture of human coronary artery smooth muscle cells; assay type: cell-based; settings: 24 hr
Description: Human coronary artery smooth muscle cells were incubated with paricalcitol or calcitriol at the indicated concentration for 24 hr at 37° C. Samples were solubilized in SDS-PAGE sample buffer, and the protein content in each sample was determined by the Bio-Rad dye-binding protein assay. Samples were resolved by SDS-PAGE using a 4-12% gel, and proteins were electrophoretically transferred to PVDF membrane for Western blotting. The membrane was blotted for 1 h at 25° C. with 5% nonfat dry milk in PBS-T and then incubated with a mouse anti-PAI-1 monoclonal antibody in PBS-T overnight at 4° C. The membrane was washed with PBS-T and incubated with a horseradish peroxidase-labeled […] antibody for 1 h at 25° C. The membrane was then incubated with detection reagent (SuperSignal WestPico). The specific bands were visualized by exposing the paper to Kodak BioMax films.

24(OH)ase = test: Effect of drugs on the expression of 24(OH)ase; assay type: cell-based; settings: relative to calcitriol
Description: Two observations may be noted in these studies: (1) 100% inhibition of growth was never achieved even at 1 μM of any of the test compound. Confocal microscopy studies confirm that, although these drugs are potent in inducing the translocation of VDR from cytoplasm to nucleus, not all cells respond to VDRAs even after 2 h of exposure, which may explain the <100% inhibition. […] Paricalcitol is usually dosed approximately 4 fold higher than calcitriol in the clinical situation, which may translate into a 4-fold higher potency in regulating the function of smooth muscle cells.

[4] = Historical cohort of vascular access changes in HD patients with AV fistula; assay type: in vivo, human
Description: Methods: A historical cohort of 2112 adult patients new to HD, with an AV fistula as the initial primary vascular access were followed over a 35-month period (January 1999 thru November 2001) using a dialysis provider database. Patients were treated with Zemplar or no vitamin D therapy; patients receiving Zemplar therapy received at least 10 doses and remained on the same therapy. Descriptive summary statistics were used to summarize baseline characteristics and the total number of vascular access changes per year between treatment modalities. In addition, regression models were used to evaluate the association between Zemplar or no vitamin D therapy and the total number of vascular access changes per year.

[5] = Vascular calcification in 5/6 nephrectomized uremic rats; assay type: in vivo, rat; settings: for elevation of iCa: 0.67 μg/kg; for Ca content in aorta compared to vehicle / phosphorus content in aorta compared to vehicle / 45Ca uptake in aorta rings compared to vehicle: 0.67 μg/kg i.p. 3 times/week for 2 weeks; for 45Ca uptake in aorta rings compared to vehicle: rings 3 days in 45Ca
Description: The 5/6 nephrectomized rats were obtained from Charles River Labs. (Wilmington, Mass.). Two weeks after nephrectomy, rats were put on a diet containing 0.9% phosphorous and 0.6% calcium for 4 weeks, followed by treatment with vehicle (5% ethanol+95% propylene glycol, 0.4 ml/kg), paricalcitol or doxercalciferol at 0.67 μg/kg, i.p., 3 times/week, for 2 weeks. Twenty-four hours after the last dosing, blood was collected via tail vein under ketamine anesthesia (50 mg/kg) and aorta collected for calcification studies. […] After the aortas were removed in a sterile manner from the rats, the aventitia was gently removed and each aorta was washed three times with medium. A segment of each aorta was processed for calcium and phoshphorus determination. A separate portion of each aorta was denuded, cut into 2-3-mm rings and placed in DMEM containing 0.2 μCi/ml ^45Ca for 3 days at 37° C. Afterwards, aortic rings were washed, dried, weighed, and then dissolved to determine radioactivity. […] Both paricalcitol and doxercalciferol at 0.67 μg/kg elevated iCa (˜25%) and suppressed PTH (>90%).

human CASMC = test: 45Ca uptake into primary culture of human coronary artery smooth muscle cells
Description: Primary cultured human CASMC were grown to >80% confluence and used within five passages. Cells were treated with drugs for 5 days in the appropriate medium, and then changed back to base medium (N1: DMEM containing 1.8 mM Ca^+2 and 0.9 mM PO−4) containing 0.2 μCi/ml ^45Ca for 24 hr. Afterwards, cells were washed with PBS three times and radioactivity measured by liquid scintillation.

CYP24A1 = CYP24A1 mRNA expression in human CASMC (control); assay type: cell-based; settings: dose-dependent manner
PAI-1 [6] = test: PAI-1 mRNA expression in human CASMC (control); assay type: cell-based; settings: dose-dependent manner
[7] = assay type: in vivo, rat
Description: It is clinically important to suppress elevated serum PTH levels in ESRD patients with established secondary hyperparathyroidism (SHPT) independent of hypercalcemia. Moreover, the 5/6 uremic rat model has effectively predicted the clinical profile of vitamin D analogues with respect to PTH and hypercalcemia. Thus, a direct comparison was conducted of paricalcitol (PARI) and doxercalciferol (DOX) in male Sprague Dawley rats subjected to 5/6 nephrectomy (surgical ablation) placed on 4 weeks of a high phosphorous diet (0.9% phos., 0.6% Ca) to establish SHPT. On Day 0, rats received vehicle (VEH; 5% ethanol, 95% propylene glycol; 0.4 ml/kg; IP) or drug (0.083, 0.17, 0.33, 0.66 mcg/kg; n=7-10/group) 3 times/week for 12 days. Blood samples were collected 24 hr post dose (Day 13). Day 0 values (mean±SEM) for: creatinine (VEH vs sham) were 1.02±0.05 vs 0.48±0.01 mg/dL; PTH, 1320±185 vs 178±11 pg/ml; blood ionized calcium (iCa; 1.26±0.01 vs 1.30±0.01 mmol/L); phosphorous (8.70±0.34 vs 7.36±0.09 mg/dL). In VEH, the ratio of Day 13/Day 0 iCa values declined to 0.93±0.02 vs 1.02±0.01 for sham; PTH and phosphorous tended to increase. […] PARI had no effect on iCa at 0.33 mcg/kg whereas the iCa ratio increased modestly to 1.05±0.02*# at 0.66 mcg/kg, less than that of DOX. The Day 13/Day 0 PTH ratios for DOX fell to 0.43±0.12, 0.26±0.06*, and 0.22±0.11* in response to 0.18, 0.33, 0.66 mcg/kg, respectively, while PARI decreased PTH ratios to 0.37±0.07*, 0.33±0.06*, 0.13±0.02*. Serum phosphorus was not affected in any treatment group. […] Thus, in the uremic rat with established SHPT, DOX suppresses serum PTH levels concomitant with dose-dependent elevations in ionized calcium greater than those caused by equal doses of. PARI. At these doses, PARI effectively reduces PTH without eliciting dose-dependent changes in ionized blood calcium. *=p<0.05 vs. VEH ANOVA; # p<0.05 unpaired t test DOX vs PARI

[8] = Active calcium transport in duodenum ex vivo; parameters: species or system rat; settings: uremic rats with SHPT
renin [9] = test: In vivo renin inhibition in CD-1 male mice; parameters: species or system mouse; settings: 1.5 and 3.0 μg/kg i.p. 3 times a week for three weeks
[10] = Renin mRNA expression in vitamin D-deficient rats; assay type: in vivo, rat; settings: 0.003-0.3 μg/kg i.p. three times per week, 2 weeks
Description: (§3) Weanling Sprague-Dawley male rats housed in an environment free of UV light were fed a 0.4% Ca, 0.3% P, vitamin D-deficient diet for 5 weeks, then switched to a 0.02% Ca, 0.5% P, vitamin D-deficient diet for 21 days. Rats were dosed with 0.003, 0.01, 0.03, and 0.3 μg/kg of paricalcitol, i.p., three times per week, for the final 2 weeks. A control group of animals was given vehicle only (5% ethanol/95% propylene glycol), and untreated, age-matched animals on normal diet (0.5% Ca, 0.4% P) served as normal peer control. Twenty-four hours after the last dose, the rats were anesthetized with ketamine (100 mg/kg), cardiac bled, killed by CO2, tissues collected for RNA extraction and real-time RT-PCR analysis, and serum taken for determination of calcium, phosphorus, and PTH.

renin [11] = test: Renin mRNA expression in vitamin D-deficient rats; assay type: in vivo, rat; settings: 0.003-0.3 μg/kg i.p. three times per week, 2 weeks
Description: as §3

[12] = Dobrez et al. 2004; cited from earlier work
[13] = system: bovine vascular smooth muscle cells (SMC); settings: 10^-7 to 10^-9 M, in vitro; cited from earlier work
[14] = 1-100 nM, cells in N1 or 60% N1/40% P1 media, 5 days
[15] = 0.18 mcg/kg IP 3 times/week for 12 days
[16] = 0.33 mcg/kg IP 3 times/week for 12 days
[17] = 0.66 mcg/kg IP 3 times/week for 12 days

Row | Structure (SMILES) | median number of days spent in the hospital (hospital days per year) [1] [days] | median number of hospitalizations in a year [1] | fewer hospital days compared to the No Vitamin D group [1] [days] | fewer hospitalizations compared to the No Vitamin D group [1] | potency in reducing the PAI level (PAI-1 [3]) | elevation of iCa [5] [%] | Ca content in aorta compared to vehicle [5] [fold] | phosphorus content in aorta compared to vehicle [5] | 45Ca uptake in aorta rings compared to vehicle [5] | effect on 45Ca uptake (human CASMC; [14]) | Day 13/Day 0 PTH ratio [7, 15] | Day 13/Day 0 PTH ratio [7, 16] | Day 13/Day 0 PTH ratio [7, 17] | active calcium transport in duodenum ex vivo [8] | also measured
1 | C[C@H](/C=C/[C@H](C)C(C)(C)O)[C@H]1CC[C@H]2/C(=C/C=C3C[C@@H](O)C[C@H](O)C3)CCC[C@]12C [paricalcitol] | 5.2 | 1.5 | 17.5 | 1.2 | equally potent | ~25 | 1.6 | no significant difference | no significant difference | no significant effects | 0.37±0.07 | 0.33±0.06 | 0.13±0.02 | no effect | renin-inhibiting potency relative to calcitriol / 1,25(OH)2D3 [2]: comparable to that of 1,25(OH)2D3; also recorded: a bit more potent than calcitriol; effect on renin mRNA expression ([2]; 10^-10 to 10^-7 M, 24 hours): suppresses; also recorded: dose-dependently inhibits; potency in suppressing renin gene promoter activity relative to calcitriol / 1,25(OH)2D3 (renin gene promoter): comparable to that of 1,25(OH)2D3; also recorded: at least as potent as calcitriol; effect on renin gene transcription (renin gene promoter; As4.1-hVDR cells): suppresses; potency on stimulating the expression of 24(OH)ase (24(OH)ase): less potent than calcitriol; total number of vascular access changes (average) ([4]; HD patients with AV fistula, p=0.0034 vs no D): 0.6 changes per year; more vascular access changes in No D group than in Zemplar patients ([4]; negative binomial regression, p=0.038): 28%; effect on 45Ca uptake (human CASMC; 100 nM, cells in N1 medium or different doses of P1 medium (20-60%)): did not show a significant effect; CYP24A1 mRNA expression (CYP24A1): stimulated; PAI-1 mRNA expression (PAI-1 [6]): suppressed; body weight (renin [9]): no effect; levels of blood ionized calcium (renin [9]): only slightly increased; calcium [10]: did not result in a significant change; serum PTH [10]: reduced serum PTH dose-dependently; renal renin mRNA expression (renin [11]): normalized; hospitalizations related to cardiovascular events and non-infectious inflammations compared with calcitriol [12]: fewer hospitalizations
2 | C=C1/C(=C\C=C2/CCC[C@]3(C)[C@@H]([C@H](C)CCCC(C)(C)O)CC[C@@H]23)C[C@@H](O)C[C@@H]1O [calcitriol] | 10.6 | 2.2 | 7.7 | no statistical difference | equally potent | – | – | – | – | no significant effects | – | – | – | – | calcification of bovine vascular smooth muscle cells [13]: dose dependent increase
3 | C=C1/C(=C\C=C2/CCC[C@]3(C)[C@@H]([C@H](C)/C=C/[C@H](C)C(C)C)CC[C@@H]23)C[C@@H](O)C[C@@H]1O [doxercalciferol] | – | – | – | – | – | ~25 | 1.0 | 17 fold | 40 fold | – | 0.43±0.12 | 0.26±0.06 | 0.22±0.11 | dose-dependent increase | –
